Data as given in ChEMBL document CHEMBL5113486, “Hit-to-lead optimization of novel phenyl imidazole carboxamides that are active against Leishmania donovani” (Eur J Med Chem, 2022).

What was measured:
[1] = Selectivity index, ratio of CC50 for cytotoxicity against human THP-1 cells to IC50 for antileishmanial activity against Leishmania donovani infected in human THP-1 cells; format: toxicity, cell-based; conditions: read-out: Ratio CC50/IC50
Leishmania donovani = assay: Antileishmanial activity against Leishmania donovani infected in human THP-1 cells assessed as growth inhibition by intramacrophage assay; format: functional, organism-based
[2] = Cytotoxicity against human THP-1 cells assessed as cell growth inhibition; format: toxicity, cell-based
[3] = Cytotoxicity against human HepG2 cells assessed as cell growth inhibition at 100 uM; format: toxicity, cell-based; conditions: read-out: Activity

COc1ccc(-c2cnc(NC(=O)C3CCOCC3)n2C)cc1
selectivity ratio [1]: > 1
IC50 (Leishmania donovani): > 100 µM
CC50 [2]: > 100 µM

Cn1c(-c2cccc(C#N)c2)cnc1NC(=O)c1ncc[nH]1
selectivity ratio [1]: > 1
IC50 (Leishmania donovani): > 50 µM
CC50 [2]: > 50 µM

Cn1c(-c2cccc(F)c2)cnc1NC(=O)c1ccc(F)cc1
selectivity ratio [1]: 4.8
IC50 (Leishmania donovani): 12 µM
CC50 [2]: 58 µM

COc1cccc(-c2cnc(NC(=O)c3ccc(F)cc3)n2C)c1
selectivity ratio [1]: > 1
IC50 (Leishmania donovani): > 100 µM
CC50 [2]: > 100 µM

Cn1c(-c2cccc(Cl)c2)cnc1NC(=O)c1ccc(F)cc1
selectivity ratio [1]: > 2.3
IC50 (Leishmania donovani): 22 µM
CC50 [2]: > 50 µM

COc1ccc(-c2cnc(NC(=O)CCc3ccccc3)n2C)cc1
selectivity ratio [1]: > 4.5
IC50 (Leishmania donovani): 22 µM
CC50 [2]: > 100 µM

Cc1ccc(-c2cnc(NC(=O)c3ccc(F)cc3)n2C)cc1
selectivity ratio [1]: 4.5
IC50 (Leishmania donovani): 13 µM
CC50 [2]: 60 µM

COc1ccc(-c2cnc(NC(=O)c3cccc(OC)c3)n2C)cc1
selectivity ratio [1]: > 1
IC50 (Leishmania donovani): > 100 µM
CC50 [2]: > 100 µM

COc1ccccc1-c1cnc(NC(=O)c2ccc(F)cc2)n1C
selectivity ratio [1]: > 1
IC50 (Leishmania donovani): > 100 µM
CC50 [2]: > 100 µM

COc1ccc(-c2cnc(NC(=O)c3cccc(O)c3)n2C)cc1
selectivity ratio [1]: > 1.9
IC50 (Leishmania donovani): 54 µM
CC50 [2]: > 100 µM

CCCn1c(-c2ccc(OC)cc2)cnc1NC(=O)c1ccc(F)cc1
selectivity ratio [1]: > 1
IC50 (Leishmania donovani): 18 µM
CC50 [2]: > 100 µM

Cc1ccc(C(=O)Nc2ncc(-c3ccccc3)o2)cc1
selectivity ratio [1]: 19
IC50 (Leishmania donovani): 1.4 µM
CC50 [2]: 26 µM

Cn1c(-c2ccc(C#N)cc2)cnc1NC(=O)c1ccc(F)cc1
selectivity ratio [1]: > 1
IC50 (Leishmania donovani): > 50 µM
CC50 [2]: > 50 µM

COc1ccc(-c2cnc(NC(=O)c3ccccn3)n2C)cc1
selectivity ratio [1]: > 7.7
IC50 (Leishmania donovani): 13 µM
CC50 [2]: > 100 µM

Cn1c(-c2cccc(C#N)c2)cnc1NC(=O)c1ccc(F)cc1
selectivity ratio [1]: > 6.3
IC50 (Leishmania donovani): 16 µM
CC50 [2]: > 100 µM

Cn1c(-c2ccccc2)cnc1NC(=O)c1ccc(Br)cc1
selectivity ratio [1]: > 2.7
IC50 (Leishmania donovani): 37 µM
CC50 [2]: > 100 µM

COc1ccc(-c2cnc(NC(=O)c3cccc(Br)c3)n2C)cc1
inhibition at 100 µM [3]: < 50%
selectivity ratio [1]: > 1
IC50 (Leishmania donovani): > 100 µM
CC50 [2]: > 100 µM

Cn1c(-c2ccccc2)cnc1NC(=O)c1ccc(Cl)cc1
selectivity ratio [1]: > 8.3
IC50 (Leishmania donovani): 12 µM
CC50 [2]: > 100 µM

COc1ccc(CN(C)C(=O)NC(=O)c2ccc(F)cc2)cc1
selectivity ratio [1]: > 1
IC50 (Leishmania donovani): > 50 µM
CC50 [2]: > 50 µM

COc1ccc(-c2cnc(NC(=O)c3cccc(Cl)c3)n2C)cc1
selectivity ratio [1]: > 2.8
IC50 (Leishmania donovani): > 10 µM
CC50 [2]: > 28 µM

O=C(Nc1ncc(-c2ccccc2)o1)c1ccc(Cl)cc1
selectivity ratio [1]: 30
IC50 (Leishmania donovani): 0.33 µM
CC50 [2]: 10 µM

Cn1c(-c2ccccc2Cl)cnc1NC(=O)c1ccc(F)cc1
selectivity ratio [1]: > 3.3
IC50 (Leishmania donovani): 15 µM
CC50 [2]: > 50 µM

COc1ccc(-c2cnc(NC(=O)c3ccc(O)cc3)n2C)cc1
selectivity ratio [1]: > 1
IC50 (Leishmania donovani): > 100 µM
CC50 [2]: > 100 µM

Cn1c(-c2ccc(C#N)cc2)cnc1NC(=O)c1ncc[nH]1
selectivity ratio [1]: > 7.1
IC50 (Leishmania donovani): 14 µM
CC50 [2]: > 100 µM

COc1ccc(-c2cnc(NC(=O)c3ccc(F)cc3)n2C(C)C)cc1
selectivity ratio [1]: > 1
IC50 (Leishmania donovani): > 50 µM
CC50 [2]: > 50 µM

Cc1ccccc1-c1cnc(NC(=O)c2ccc(F)cc2)n1C
selectivity ratio [1]: > 13
IC50 (Leishmania donovani): 3.9 µM
CC50 [2]: > 50 µM

Cn1c(-c2cccc(Br)c2)cnc1NC(=O)c1ccc(F)cc1
selectivity ratio [1]: > 9.3
IC50 (Leishmania donovani): 5.4 µM
CC50 [2]: > 50 µM

Cn1c(-c2ccccc2)cnc1NC(=O)c1cccc(Br)c1
selectivity ratio [1]: > 16
IC50 (Leishmania donovani): 3.1 µM
CC50 [2]: > 50 µM

COc1ccc(-c2cnc(NC(=O)c3cccc([N+](=O)[O-])c3)n2C)cc1
selectivity ratio [1]: > 1
IC50 (Leishmania donovani): > 100 µM
CC50 [2]: > 100 µM

Cn1c(-c2ccc(Br)cc2)cnc1NC(=O)c1ccc(F)cc1
selectivity ratio [1]: 6.5
IC50 (Leishmania donovani): 7.1 µM
CC50 [2]: 46 µM

COc1ccc(-c2cnc(NC(=O)c3ccc(C)cc3)n2C)cc1
selectivity ratio [1]: > 3.4
IC50 (Leishmania donovani): 29 µM
CC50 [2]: > 100 µM

COc1ccccc1-c1cnc(NC(=O)c2ncc[nH]2)n1C
selectivity ratio [1]: > 1
IC50 (Leishmania donovani): > 50 µM
CC50 [2]: > 50 µM

COc1ccc(-c2cnc(NC(=O)c3ccccc3Br)n2C)cc1
selectivity ratio [1]: > 1
IC50 (Leishmania donovani): > 100 µM
CC50 [2]: > 100 µM

COc1ccc(CNC(=O)NC(=O)c2ccc(F)cc2)cc1
selectivity ratio [1]: > 1
IC50 (Leishmania donovani): > 50 µM
CC50 [2]: > 50 µM

COc1ccc(-c2cnc(NC(=O)c3cccnc3)n2C)cc1
inhibition at 100 µM [3]: < 50%
selectivity ratio [1]: > 1
IC50 (Leishmania donovani): > 100 µM
CC50 [2]: > 100 µM

Cn1c(-c2ccccc2)cnc1NC(=O)c1cc(-c2ccccn2)[nH]n1
selectivity ratio [1]: > 74
IC50 (Leishmania donovani): 0.68 µM
CC50 [2]: > 50 µM

COc1ccc(-c2cn(C)c(NC(=O)c3ccc(F)cc3)n2)cc1
selectivity ratio [1]: > 1
IC50 (Leishmania donovani): > 50 µM
CC50 [2]: > 50 µM

COc1ccc(-c2cnc(NC(=O)c3ccccc3C)n2C)cc1
inhibition at 100 µM [3]: < 50%
selectivity ratio [1]: > 1.5
IC50 (Leishmania donovani): 65 µM
CC50 [2]: > 100 µM

COc1ccc(-c2cnc(NC(=O)c3ccco3)n2C)cc1
inhibition at 100 µM [3]: < 50%
selectivity ratio [1]: > 4.3
IC50 (Leishmania donovani): 23 µM
CC50 [2]: > 100 µM

COc1ccc(-c2cnc(NC(=O)c3ccccc3Cl)n2C)cc1
selectivity ratio [1]: > 3.8
IC50 (Leishmania donovani): 13 µM
CC50 [2]: > 50 µM

Cn1c(-c2ccccc2)cnc1NC(=O)c1cccc(Cl)c1
selectivity ratio [1]: > 5.9
IC50 (Leishmania donovani): 8.5 µM
CC50 [2]: > 50 µM

Cn1c(-c2ccc([N+](=O)[O-])cc2)cnc1NC(=O)c1ccc(F)cc1
selectivity ratio [1]: > 1
IC50 (Leishmania donovani): > 50 µM
CC50 [2]: > 50 µM

COc1ccc(C(=O)Nc2ncc(-c3ccc(OC)cc3)n2C)cc1
selectivity ratio [1]: > 1
IC50 (Leishmania donovani): > 100 µM
CC50 [2]: > 100 µM

COc1ccc(-c2cnc(NC(=O)c3ccc(Cl)cc3)n2C)cc1
selectivity ratio [1]: > 12
IC50 (Leishmania donovani): 8.1 µM
CC50 [2]: > 100 µM

Cn1c(-c2ccccc2)cnc1NC(=O)c1ccccc1
selectivity ratio [1]: > 22
IC50 (Leishmania donovani): 4.5 µM
CC50 [2]: > 100 µM

Cn1c(-c2ccccc2[N+](=O)[O-])cnc1NC(=O)c1ccc(F)cc1
selectivity ratio [1]: 3.2
IC50 (Leishmania donovani): 9.8 µM
CC50 [2]: 31 µM

COc1ccc(-c2cnc(NC(=O)c3ccc(Br)cc3)n2C)cc1
inhibition at 100 µM [3]: < 50%
selectivity ratio [1]: > 1
IC50 (Leishmania donovani): > 100 µM
CC50 [2]: > 100 µM

COc1ccc(-c2cnc(NC(=O)C3CCCC3)n2C)cc1
inhibition at 100 µM [3]: < 50%
selectivity ratio [1]: > 1.2
IC50 (Leishmania donovani): 83 µM
CC50 [2]: > 100 µM

COc1ccc(-c2cnc(NC(=O)Cc3ccccc3)n2C)cc1
inhibition at 100 µM [3]: < 50%
selectivity ratio [1]: > 4
IC50 (Leishmania donovani): 25 µM
CC50 [2]: > 100 µM

Cn1c(-c2ccccc2)cnc1NC(=O)c1ccccc1Cl
selectivity ratio [1]: > 10
IC50 (Leishmania donovani): 5 µM
CC50 [2]: > 50 µM

COc1ccc(-c2cnc(NC(=O)c3ccccc3C#N)n2C)cc1
inhibition at 100 µM [3]: < 50%
selectivity ratio [1]: > 7.1
IC50 (Leishmania donovani): 14 µM
CC50 [2]: > 100 µM

Cn1c(-c2cccc([N+](=O)[O-])c2)cnc1NC(=O)c1ccc(F)cc1
selectivity ratio [1]: > 1
IC50 (Leishmania donovani): > 50 µM
CC50 [2]: > 50 µM

Cc1cccc(C(=O)Nc2ncc(-c3ccccc3)n2C)c1
selectivity ratio [1]: > 14
IC50 (Leishmania donovani): 3.5 µM
CC50 [2]: > 50 µM

Cn1cc(-c2ccccc2)nc1NC(=O)c1ccc(F)cc1
selectivity ratio [1]: > 1
IC50 (Leishmania donovani): > 50 µM
CC50 [2]: > 50 µM

COc1ccc(-c2cnc(NC(=O)c3ccno3)n2C)cc1
inhibition at 100 µM [3]: < 50%
selectivity ratio [1]: > 1
IC50 (Leishmania donovani): > 100 µM
CC50 [2]: > 100 µM

COc1ccc(-c2cnc(NC(=O)c3ccncc3)n2C)cc1
inhibition at 100 µM [3]: < 50%
selectivity ratio [1]: > 2.3
IC50 (Leishmania donovani): 44 µM
CC50 [2]: > 100 µM

COc1ccc(-c2cnc(NC(=O)c3ccccc3OC)n2C)cc1
selectivity ratio [1]: > 3
IC50 (Leishmania donovani): 33 µM
CC50 [2]: > 100 µM

CCC(=O)Nc1ncc(-c2ccc(OC)cc2)n1C
selectivity ratio [1]: > 1
IC50 (Leishmania donovani): > 100 µM
CC50 [2]: > 100 µM

COc1ccc(-c2cnc(NC(=O)c3ccc(F)cc3)n2-c2ccccc2)cc1
selectivity ratio [1]: > 2.9
IC50 (Leishmania donovani): 6.1 µM
CC50 [2]: 8.8 µM

COc1ccc(-c2cccc(NC(=O)c3ccc(F)cc3)n2)cc1
selectivity ratio [1]: > 1
IC50 (Leishmania donovani): > 100 µM
CC50 [2]: > 100 µM

COc1ccc(-c2ccnc(NC(=O)c3ccc(F)cc3)c2)cc1
selectivity ratio [1]: > 1
IC50 (Leishmania donovani): > 100 µM
CC50 [2]: > 100 µM

Cn1c(-c2ccccc2Cl)cnc1NC(=O)c1ncc[nH]1
selectivity ratio [1]: > 9.6
IC50 (Leishmania donovani): 5.2 µM
CC50 [2]: > 50 µM

Cn1c(-c2ccccc2Br)cnc1NC(=O)c1ccc(F)cc1
selectivity ratio [1]: > 1
IC50 (Leishmania donovani): > 100 µM
CC50 [2]: > 100 µM

COc1ccc(-c2cnc(NC(=O)c3ccccc3[N+](=O)[O-])n2C)cc1
selectivity ratio [1]: > 1
IC50 (Leishmania donovani): > 50 µM
CC50 [2]: > 50 µM

Cc1ccc(C(=O)Nc2ncc(-c3ccccc3)n2C)cc1
selectivity ratio [1]: > 20
IC50 (Leishmania donovani): 2.4 µM
CC50 [2]: > 50 µM

Cn1c(-c2ccc(Cl)cc2)cnc1NC(=O)c1ccc(F)cc1
selectivity ratio [1]: 7.6
IC50 (Leishmania donovani): 4.9 µM
CC50 [2]: 37 µM

C[C@@H]1[C@H](O)[C@@H](C)/C=C/C=C/C=C/C=C/C=C/C=C/C=C/[C@H](O[C@@H]2O[C@H](C)[C@@H](O)[C@H](N)[C@@H]2O)C[C@@H]2O[C@](O)(C[C@@H](O)C[C@@H](O)[C@H](O)CC[C@@H](O)C[C@@H](O)CC(=O)O[C@H]1C)C[C@H](O)[C@H]2C(=O)O [AMPHOTERICIN B]
IC50 (Leishmania donovani): 0.12 µM
CC50 [2]: 6 µM

CCCCCCCCCCCCCCCCOP(=O)([O-])OCC[N+](C)(C)C [MILTEFOSINE]
IC50 (Leishmania donovani): 0.39 µM
CC50 [2]: > 20 µM
